Data taken from patent US20230113037A1 (Bayer Aktiengesellschaft, priority 2019, published 2023).
Like-named read-outs stand apart in the source and are kept apart here.

What was measured:
AHR [1] = target: T1, AHR (Homo sapiens, UniProt P35869); assay: In vitro assay 1: antagonism in human cell line (AHR transactivation, firefly luciferase reporter, kynurenic acid prestimulated); assay type: cell-based; settings: AHR Antagonism Human IC50 [M]
T1 construct: U87 MG glioblastoma cells (ATCC #HTB-14) endogenously expressing AHR; endogenous in cells; host or cells: U87 MG glioblastoma cells (ATCC #HTB-14)
T1 sequence (P35869 11-848): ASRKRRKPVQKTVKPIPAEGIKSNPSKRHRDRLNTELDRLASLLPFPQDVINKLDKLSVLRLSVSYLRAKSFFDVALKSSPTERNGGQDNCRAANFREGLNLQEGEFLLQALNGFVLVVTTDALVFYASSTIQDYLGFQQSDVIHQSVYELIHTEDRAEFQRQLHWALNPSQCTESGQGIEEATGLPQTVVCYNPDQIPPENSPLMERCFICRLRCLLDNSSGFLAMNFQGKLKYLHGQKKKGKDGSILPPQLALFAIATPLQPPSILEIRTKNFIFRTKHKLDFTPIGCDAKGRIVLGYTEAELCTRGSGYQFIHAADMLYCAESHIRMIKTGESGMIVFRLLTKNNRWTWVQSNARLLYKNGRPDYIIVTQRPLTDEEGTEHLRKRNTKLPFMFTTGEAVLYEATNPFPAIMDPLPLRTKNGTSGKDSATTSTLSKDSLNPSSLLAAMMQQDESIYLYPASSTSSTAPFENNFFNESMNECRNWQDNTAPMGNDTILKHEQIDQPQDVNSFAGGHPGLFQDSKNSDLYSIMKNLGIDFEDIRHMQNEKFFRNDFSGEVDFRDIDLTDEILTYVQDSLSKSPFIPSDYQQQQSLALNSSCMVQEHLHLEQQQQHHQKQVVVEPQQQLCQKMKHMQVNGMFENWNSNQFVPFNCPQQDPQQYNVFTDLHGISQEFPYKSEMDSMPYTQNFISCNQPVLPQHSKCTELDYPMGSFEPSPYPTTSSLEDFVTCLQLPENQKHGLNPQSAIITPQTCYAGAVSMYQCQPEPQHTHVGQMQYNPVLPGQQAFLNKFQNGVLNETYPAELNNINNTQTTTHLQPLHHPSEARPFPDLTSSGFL
Method in brief: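 Antagonism measured as loss of kynurenic acid-driven firefly luciferase from DRE reporter in stably transfected U87 MG cells; constitutive Renilla signal monitors cytotoxicity. Positive/negative control normalization, staurosporine 5 μM with 150 μM kynurenic acid as inhibition control; replicates given as mean or median.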

AHR [2] = target: T2, AHR (Mus musculus, UniProt P30561); assay: In vitro assay 3: antagonism in mouse cell line (AHR transactivation, firefly luciferase reporter, kynurenic acid prestimulated); assay type: cell-based
T2 sequence (P30561 1-848 P471L/N533S/M589L): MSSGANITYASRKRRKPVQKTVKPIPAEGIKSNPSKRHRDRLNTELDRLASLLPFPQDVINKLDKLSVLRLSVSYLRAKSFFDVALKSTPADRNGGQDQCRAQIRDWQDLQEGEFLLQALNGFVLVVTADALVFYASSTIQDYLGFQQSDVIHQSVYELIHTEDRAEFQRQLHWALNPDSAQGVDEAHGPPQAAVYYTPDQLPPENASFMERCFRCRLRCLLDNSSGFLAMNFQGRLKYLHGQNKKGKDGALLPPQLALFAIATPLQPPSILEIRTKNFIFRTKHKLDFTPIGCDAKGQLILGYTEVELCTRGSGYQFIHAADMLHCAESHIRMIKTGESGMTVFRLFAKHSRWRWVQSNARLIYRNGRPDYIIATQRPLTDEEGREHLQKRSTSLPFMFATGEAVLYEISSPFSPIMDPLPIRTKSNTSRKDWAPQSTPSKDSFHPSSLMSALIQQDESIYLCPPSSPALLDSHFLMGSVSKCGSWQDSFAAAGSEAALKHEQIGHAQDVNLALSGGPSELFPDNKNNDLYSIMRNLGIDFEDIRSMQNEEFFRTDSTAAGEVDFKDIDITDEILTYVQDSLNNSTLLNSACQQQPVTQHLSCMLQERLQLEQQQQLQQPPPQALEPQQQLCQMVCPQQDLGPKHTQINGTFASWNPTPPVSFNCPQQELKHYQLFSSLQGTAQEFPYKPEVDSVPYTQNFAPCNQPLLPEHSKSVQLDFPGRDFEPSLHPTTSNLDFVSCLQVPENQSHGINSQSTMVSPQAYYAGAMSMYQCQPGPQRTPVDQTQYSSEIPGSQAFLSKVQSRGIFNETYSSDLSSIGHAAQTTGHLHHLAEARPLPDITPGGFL
Method in brief: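 Luminescence from an AHR-dependent DRE-luciferase reporter, stably integrated in mouse cells, quantifies blockade of kynurenic acid-driven activation. Unstimulated cells mark maximal inhibition; normalization uses both control types, and multiply tested compounds carry mean or median values.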

[3] = mouse Hepa 1c1c7 cells, 200 μM kynurenic acid, 20 hours, read-out: AHR Antagonism Mouse IC50
[4] = Hepa 1c1c7 cells, 200 μM kynurenic acid, 20 hours, firefly luciferase reporter, read-out: AHR Antagonism Mouse IC50

CCCCNC(=O)CNc1nc2ccccc2c2nc(-c3cc(Cl)ccc3OC(F)(F)F)nn12 [Example 503, N-butyl-N^2-{2-[5-chloro-2-(trifluoromethoxy)phenyl][1,2,4]triazolo[1,5-c]quinazolin-5-yl}glycinamide]
IC50 (AHR [1]): > 2e-05 M
IC50 (AHR [2]; [3]): > 20000 nM

O=C1NCCCC[C@H]1Nc1nc2ccccc2c2nc(-c3cncc(C(F)(F)F)c3)nn12 [Example 362, (3R)-3-({2-[5-(trifluoromethyl)pyridin-3-yl][1,2,4]triazolo[1,5-c]quinazolin-5-yl}amino)azepan-2-one]
IC50 (AHR [1]): 1.91e-08 M
IC50 (AHR [2]; [3]): 3.54 nM

CC[C@@H](Nc1nc2c(Br)cccc2c2nc(-c3ccnn3C)nn12)C(N)=O [Example 800, (2R)-2-{[7-bromo-2-(1-methyl-1H-pyrazol-5-yl)[1,2,4]triazolo[1,5-c]quinazolin-5-yl]amino}butanamide]
IC50 (AHR [1]; firefly luciferase reporter): 2.37e-09 M
IC50 (AHR [2]; read-out: AHR Antagonism Mouse IC50, Hepa 1c1c7 cells, 200 μM kynurenic acid, 20 hours, firefly luciferase reporter): 1.69 nM

COCCn1cc(-c2nc3c4ccccc4nc(N[C@@H]4CCCCNC4=O)n3n2)cn1 [Example 432, (3R)-3-({2-[1-(2-methoxyethyl)-1H-pyrazol-4-yl][1,2,4]triazolo[1,5-c]quinazolin-5-yl}amino)azepan-2-one]
IC50 (AHR [1]): 6.11e-08 M
IC50 (AHR [2]; [3]): 18.1 nM

COc1ccc(-c2nc3c4c(C5COC5)cccc4nc(N[C@@H]4CCCCNC4=O)n3n2)cc1 [Example 396, (3R)-3-{[2-(4-methoxyphenyl)-10-(oxetan-3-yl)[1,2,4]triazolo[1,5-c]quinazolin-5-yl]amino}azepan-2-one]
IC50 (AHR [1]): 1.12e-08 M
IC50 (AHR [2]; [3]): 21.6 nM

COc1ccc(-c2nc3c4cccc(C5(C)CC5)c4nc(N[C@@H]4CCCCNC4=O)n3n2)cc1 [Example 399, (3R)-3-{[2-(4-methoxyphenyl)-7-(1-methylcyclopropyl)[1,2,4]triazolo[1,5-c]quinazolin-5-yl]amino}azepan-2-one]
IC50 (AHR [1]): 1.85e-08 M
IC50 (AHR [2]; [3]): 55.7 nM

CC[C@@H](Nc1nc2ccccc2c2nc(-c3ccsc3)nn12)C(N)=O [Example 344]
IC50 (AHR [1]): 3.57e-09 M
IC50 (AHR [2]; [3]): 0.628 nM

COc1cccc(-c2nc3c4ccccc4nc(NC4CCNC4=O)n3n2)c1 (single isomer, unassigned) [Example 121, 3-{[2-(3-methoxyphenyl)[1,2,4]triazolo[1,5-c]quinazolin-5-yl]amino}pyrrolidin-2-one]
IC50 (AHR [1]): 1.96e-07 M
IC50 (AHR [2]; [3]): 275 nM

CC[C@H](Nc1nc2ccccc2c2nc(-c3cccc(C#N)c3)nn12)C(N)=O [Example 442, (2S)-2-{[2-(3-cyanophenyl)[1,2,4]triazolo[1,5-c]quinazolin-5-yl]amino}butanamide]
IC50 (AHR [1]): 4.89e-06 M
IC50 (AHR [2]; [3]): 264 nM

Cc1cc(-c2nc3c4ccccc4nc(N[C@@H]4CCCCNC4=O)n3n2)n[nH]1 [Example 64, (3R)-3-{[2-(5-methyl-1H-pyrazol-3-yl)[1,2,4]triazolo[1,5-c]quinazolin-5-yl]amino}azepan-2-one]
IC50 (AHR [1]): 6.33e-08 M
IC50 (AHR [2]; [3]): 85 nM

N#Cc1cccc2c1nc(N[C@@H]1CCCCNC1=O)n1nc(-c3cnn(C(F)F)c3)nc21 [Example 764, 2-[1-(difluoromethyl)-1H-pyrazol-4-yl]-5-{[(3R)-2-oxoazepan-3-yl]amino}[1,2,4]triazolo[1,5-c]quinazoline-7-carbonitrile]
IC50 (AHR [1]): 1.86e-09 M
IC50 (AHR [2]; [3]): 1.73 nM

O=C1NCCCC[C@@H]1Nc1nc2ccccc2c2nc(-c3cc(Br)ccc3OC(F)(F)F)nn12 [Example 506, (3S)-3-({2-[5-bromo-2-(trifluoromethoxy)phenyl][1,2,4]triazolo[1,5-c]quinazolin-5-yl}amino)azepan-2-one]
IC50 (AHR [1]): > 2e-05 M
IC50 (AHR [2]; [3]): > 20000 nM

Cn1nccc1-c1nc2c3cccc(C(F)(F)F)c3nc(N[C@@H]3CNCCNC3=O)n2n1 [Example 946, (6R)-6-{[2-(1-methyl-1H-pyrazol-5-yl)-7-(trifluoromethyl)[1,2,4]triazolo[1,5-c]quinazolin-5-yl]amino}-1,4-diazepan-5-one]
IC50 (AHR [1]; firefly luciferase reporter): 8.75e-09 M
IC50 (AHR [2]; [4]): 2.16 nM

CCNC(=O)[C@@H](C)Nc1nc2ccccc2c2nc(-c3cccc(OC)c3)nn12 [Example 107, N-ethyl-N^2-[2-(3-methoxyphenyl)[1,2,4]triazolo[1,5-c]quinazolin-5-yl]-D-alaninamide]
IC50 (AHR [1]): 1.06e-08 M
IC50 (AHR [2]; [3]): 9.86 nM

CCn1cc(-c2nc3c4cccc(Br)c4nc(N[C@@H]4CNCCNC4=O)n3n2)cn1 [Example 980, (6R)-6-{[7-bromo-2-(1-ethyl-1H-pyrazol-4-yl)[1,2,4]triazolo[1,5-c]quinazolin-5-yl]amino}-1,4-diazepan-5-one]
IC50 (AHR [1]; firefly luciferase reporter): 5.22e-09 M
IC50 (AHR [2]; [4]): 6.35 nM

COc1ccc(-c2nc3c4cccc(S(C)(=O)=O)c4nc(N[C@@H]4CCCCNC4=O)n3n2)cc1 [Example 842, (3R)-3-{[7-(methanesulfonyl)-2-(4-methoxyphenyl)[1,2,4]triazolo[1,5-c]quinazolin-5-yl]amino}azepan-2-one]
IC50 (AHR [1]; firefly luciferase reporter): 4.03e-10 M
IC50 (AHR [2]; [4]): 9.92 nM

O=C1NCCC[C@H]1Nc1nc2ccccc2c2nc(-c3cc(Cl)ccc3OC(F)(F)F)nn12 [Example 499, (3R)-3-({2-[5-chloro-2-(trifluoromethoxy)phenyl][1,2,4]triazolo[1,5-c]quinazolin-5-yl}amino)piperidin-2-one]
IC50 (AHR [1]): > 2e-05 M
IC50 (AHR [2]; [3]): > 20000 nM

O=C1NCCCC[C@H]1Nc1nc2ccccc2c2nc(-c3cnsc3)nn12 [Example 645, (3R)-3-{[2-(1,2-thiazol-4-yl)[1,2,4]triazolo[1,5-c]quinazolin-5-yl]amino}azepan-2-one]
IC50 (AHR [1]): 1.66e-08 M
IC50 (AHR [2]; [3]): 6.64 nM

CCCNC(=O)[C@@H](CC)Nc1nc2c(Br)cccc2c2nc(-c3ccc(Cl)cc3OC(F)(F)F)nn12 [Example 812, (2R)-2-({7-bromo-2-[4-chloro-2-(trifluoromethoxy)phenyl][1,2,4]triazolo[1,5-c]quinazolin-5-yl}amino)-N-propylbutanamide]
IC50 (AHR [1]; firefly luciferase reporter): 3.57e-09 M
IC50 (AHR [2]; [4]): 2.47 nM

COc1cccc(-c2nc3c4ccccc4nc(N[C@@H](C(N)=O)C(C)C)n3n2)c1 [Example 103, N^2-[2-(3-methoxyphenyl)[1,2,4]triazolo[1,5-c]quinazolin-5-yl]-D-valinamide]
IC50 (AHR [1]): 4.43e-09 M
IC50 (AHR [2]; [3]): 0.345 nM

CS(=N)(=O)c1ccc(-c2nc3c4ccccc4nc(N[C@@H]4CCCCNC4=O)n3n2)cc1 (single isomer, unassigned) [Example 308]
IC50 (AHR [1]): 1.1e-07 M
IC50 (AHR [2]; [3]): 18.6 nM

CNC(=O)[C@@H](C)Nc1nc2ccccc2c2nc(-c3cccc(OC)c3)nn12 [Example 108, N^2-[2-(3-methoxyphenyl)[1,2,4]triazolo[1,5-c]quinazolin-5-yl]-N-methyl-D-alaninamide]
IC50 (AHR [1]): 5.75e-09 M
IC50 (AHR [2]; [3]): 3.58 nM

O=C1NCCNC[C@H]1Nc1nc2c(C3CC3)cccc2c2nc(-c3cnn(CC4CC4)c3)nn12 [Example 954, (6R)-6-({7-cyclopropyl-2-[1-(cyclopropylmethyl)-1H-pyrazol-4-yl][1,2,4]triazolo[1,5-c]quinazolin-5-yl}amino)-1,4-diazepan-5-one]
IC50 (AHR [1]; firefly luciferase reporter): 7.73e-08 M
IC50 (AHR [2]; [4]): 341 nM
